Reference: PubChem BioAssay (NCI)
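How tested: cells in 96-well plates exposed to compound for 48 hours at five concentrations. At the GI50, growth is halved. TGI: total growth inhibition.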

How the values were obtained:
Assay in all cases: inhibition of tumour cell growth, NCI panel, 48 h
SN12C renal = test system: SN12C renal
PC-3 prostate = test system: PC-3 prostate
MCF7 breast = test system: MCF7 breast
TK-10 renal = test system: TK-10 renal
NCI-H460 lung = test system: NCI-H460 lung
SF-539 CNS = test system: SF-539 CNS
HL-60(TB) leukemia = test system: HL-60(TB) leukemia
MALME-3M melanoma = test system: MALME-3M melanoma
BT-549 breast = test system: BT-549 breast
RPMI-8226 leukemia = test system: RPMI-8226 leukemia
KM12 colon = test system: KM12 colon
NCI/ADR-RES ovarian = test system: NCI/ADR-RES ovarian
SNB-19 CNS = test system: SNB-19 CNS
RXF 393 renal = test system: RXF 393 renal
OVCAR-8 ovarian = test system: OVCAR-8 ovarian
A549 NSCLC = test system: A549 NSCLC
HS 578T breast = test system: HS 578T breast
HCT-15 colon = test system: HCT-15 colon
SK-MEL-2 melanoma = test system: SK-MEL-2 melanoma
OVCAR-4 ovarian = test system: OVCAR-4 ovarian
UACC-257 melanoma = test system: UACC-257 melanoma
HCC-2998 colon = test system: HCC-2998 colon
DU-145 prostate = test system: DU-145 prostate
SR leukemia = test system: SR leukemia
OVCAR-5 ovarian = test system: OVCAR-5 ovarian
U251 CNS = test system: U251 CNS
OVCAR-3 ovarian = test system: OVCAR-3 ovarian
786-0 renal = test system: 786-0 renal
M14 melanoma = test system: M14 melanoma
CCRF-CEM leukemia = test system: CCRF-CEM leukemia
IGROV1 ovarian = test system: IGROV1 ovarian
SNB-75 CNS = test system: SNB-75 CNS
SW-620 colon = test system: SW-620 colon
MOLT-4 leukemia = test system: MOLT-4 leukemia
SK-MEL-5 melanoma = test system: SK-MEL-5 melanoma
SF-295 CNS = test system: SF-295 CNS
CAKI-1 renal = test system: CAKI-1 renal
NCI-H522 lung = test system: NCI-H522 lung
ACHN renal = test system: ACHN renal
HT29 colon = test system: HT29 colon
UACC-62 melanoma = test system: UACC-62 melanoma
EKVX NSCLC = test system: EKVX NSCLC
A498 renal = test system: A498 renal
HOP-92 NSCLC = test system: HOP-92 NSCLC
SK-OV-3 ovarian = test system: SK-OV-3 ovarian
LOX IMVI melanoma = test system: LOX IMVI melanoma
T-47D breast = test system: T-47D breast
HCT-116 colon = test system: HCT-116 colon
NCI-H226 lung = test system: NCI-H226 lung
MDA-MB-231 breast = test system: MDA-MB-231 breast
K-562 leukemia = test system: K-562 leukemia
SK-MEL-28 melanoma = test system: SK-MEL-28 melanoma
NCI-H23 lung = test system: NCI-H23 lung
SF-268 CNS = test system: SF-268 CNS
COLO 205 colon = test system: COLO 205 colon
HOP-62 NSCLC = test system: HOP-62 NSCLC
MDA-MB-435 = test system: MDA-MB-435

## COc1ccc2c(c1)C(=O)c1c-2c(=O)n(CCCCCCC(=O)NO)c2ccccc12
SN12C renal
  GI50: 1.36 µM
  TGI: 88.2 µM
PC-3 prostate
  GI50: 0.491 µM
  TGI: > 100 µM
MCF7 breast
  GI50: 0.226 µM
  TGI: 10.2 µM
TK-10 renal
  GI50: 0.0743 µM
  TGI: 1.68 µM
NCI-H460 lung
  GI50: 0.269 µM
  TGI: > 100 µM
SF-539 CNS
  GI50: 0.48 µM
  TGI: 28.7 µM
HL-60(TB) leukemia
  GI50: 0.325 µM
  TGI: > 100 µM
MALME-3M melanoma
  GI50: 0.202 µM
  TGI: 60.9 µM
BT-549 breast
  GI50: 2.71 µM
  TGI: 42.6 µM
RPMI-8226 leukemia
  GI50: 0.259 µM
  TGI: > 100 µM
KM12 colon
  GI50: 0.358 µM
NCI/ADR-RES ovarian
  GI50: 0.0941 µM
  TGI: 2.29 µM
SNB-19 CNS
  GI50: 0.616 µM
  TGI: 13.4 µM
RXF 393 renal
  GI50: 0.224 µM
  TGI: 1.77 µM
OVCAR-8 ovarian
  GI50: 0.329 µM
  TGI: 25.2 µM
A549 NSCLC
  GI50: 0.416 µM
  TGI: 3.19 µM
HS 578T breast
  GI50: 0.16 µM
  TGI: 4.47 µM
HCT-15 colon
  GI50: 0.602 µM
  TGI: > 100 µM
SK-MEL-2 melanoma
  GI50: 1.23 µM
  TGI: 5.9 µM
OVCAR-4 ovarian
  GI50: 1.11 µM
  TGI: 17.5 µM
UACC-257 melanoma
  GI50: 0.223 µM
  TGI: 2.31 µM
HCC-2998 colon
  GI50: 0.398 µM
  TGI: 1.84 µM
DU-145 prostate
  GI50: 0.428 µM
  TGI: 10.8 µM
SR leukemia
  GI50: 0.0999 µM
  TGI: > 100 µM
OVCAR-5 ovarian
  GI50: 0.527 µM
  TGI: 12.3 µM
U251 CNS
  GI50: 0.352 µM
  TGI: 2.01 µM
OVCAR-3 ovarian
  GI50: 0.292 µM
  TGI: 2.11 µM
786-0 renal
  GI50: 1.32 µM
  TGI: 11.5 µM
M14 melanoma
  GI50: 0.407 µM
  TGI: 13.9 µM
CCRF-CEM leukemia
  GI50: 0.138 µM
  TGI: > 100 µM
IGROV1 ovarian
  GI50: 0.732 µM
  TGI: 12.2 µM
SNB-75 CNS
  GI50: 0.093 µM
  TGI: 13.8 µM
SW-620 colon
  GI50: 0.13 µM
  TGI: 0.695 µM
MOLT-4 leukemia
  GI50: 0.139 µM
  TGI: > 100 µM
SK-MEL-5 melanoma
  GI50: 0.184 µM
  TGI: 1.08 µM
SF-295 CNS
  GI50: 0.733 µM
  TGI: 4.85 µM
CAKI-1 renal
  GI50: 0.72 µM
  TGI: 3.72 µM
NCI-H522 lung
  GI50: 0.0822 µM
  TGI: 1.17 µM
ACHN renal
  GI50: 0.226 µM
  TGI: 1.7 µM
HT29 colon
  GI50: 0.282 µM
  TGI: 2.75 µM
UACC-62 melanoma
  GI50: 0.145 µM
  TGI: 1.38 µM
EKVX NSCLC
  GI50: 0.7 µM
  TGI: > 100 µM
A498 renal
  GI50: 0.245 µM
  TGI: 0.985 µM
HOP-92 NSCLC
  GI50: 0.197 µM
  TGI: 1.24 µM
SK-OV-3 ovarian
  GI50: 0.3 µM
  TGI: 2.97 µM
LOX IMVI melanoma
  GI50: 0.236 µM
  TGI: 1.13 µM
T-47D breast
  GI50: 0.0948 µM
  TGI: 0.526 µM
HCT-116 colon
  GI50: 0.0664 µM
  TGI: 1.15 µM
NCI-H226 lung
  GI50: 1.18 µM
  TGI: > 100 µM
MDA-MB-231 breast
  GI50: 0.715 µM
  TGI: 26 µM
K-562 leukemia
  GI50: 0.26 µM
  TGI: > 100 µM
SK-MEL-28 melanoma
  GI50: 0.478 µM
  TGI: 3.12 µM
NCI-H23 lung
  GI50: 0.296 µM
  TGI: 1.81 µM
SF-268 CNS
  GI50: 1.06 µM
  TGI: 9.8 µM
COLO 205 colon
  GI50: 0.304 µM
  TGI: 1.71 µM
HOP-62 NSCLC
  GI50: 0.0987 µM
  TGI: 2.71 µM
MDA-MB-435
  GI50: 0.197 µM
  TGI: 2.29 µM
